The results in this text go back to patent publication US6147100A, “Pyrrolidine derivatives having phospholipase A2 inhibitory activity” (Shionogi & Co., Ltd., priority 1997, dated 2000).

As a reminder, the IC50 is the point on the concentration scale where inhibition reaches its midpoint.

In this assay the target is T1, cPLA2 (Homo sapiens, UniProt P47712).
T1 sequence (P47712 1-749): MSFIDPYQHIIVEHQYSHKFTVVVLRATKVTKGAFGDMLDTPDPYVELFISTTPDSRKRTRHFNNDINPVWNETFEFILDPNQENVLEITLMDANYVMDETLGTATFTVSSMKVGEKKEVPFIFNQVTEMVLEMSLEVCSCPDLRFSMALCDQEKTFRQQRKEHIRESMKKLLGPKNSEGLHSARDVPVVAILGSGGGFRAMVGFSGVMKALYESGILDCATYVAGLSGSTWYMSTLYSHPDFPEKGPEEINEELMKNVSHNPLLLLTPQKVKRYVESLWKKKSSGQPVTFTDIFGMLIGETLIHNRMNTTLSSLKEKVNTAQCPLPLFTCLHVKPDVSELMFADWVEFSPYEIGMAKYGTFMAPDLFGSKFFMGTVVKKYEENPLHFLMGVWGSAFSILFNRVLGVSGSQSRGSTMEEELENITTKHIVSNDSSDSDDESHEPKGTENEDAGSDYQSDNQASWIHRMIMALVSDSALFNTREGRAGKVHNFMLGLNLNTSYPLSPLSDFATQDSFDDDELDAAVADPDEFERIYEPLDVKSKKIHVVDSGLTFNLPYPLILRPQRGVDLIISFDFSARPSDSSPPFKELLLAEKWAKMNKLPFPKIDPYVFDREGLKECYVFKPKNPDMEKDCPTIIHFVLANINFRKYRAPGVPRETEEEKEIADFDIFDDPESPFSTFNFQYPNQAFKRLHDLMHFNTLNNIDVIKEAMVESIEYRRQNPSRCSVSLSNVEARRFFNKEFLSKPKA
The assay can be described thus: cPLA2 Inhibitory Activity. Type of assay: biochemical. Particulars: 1-palmitoyl-2-[14C]-arachidonoyl-sn-glycero-3-phosphocholine 2.5 μM, sn-1,2-dioleoylglycerol 1.25 μM; pH 7.5, 15 min at 37° C. As for the experimental part: Test Example 1 cPLA2 Inhibitory Activity The compounds of the present invention were tested for the cPLA2 inhibitory activity according to the method disclosed in […]. Roberts, […], and J. E. Putnam, J. Biol. Chem., 1991, 266, 5268-5272 as outlined below. […] The reaction mixture includes 50 mM HEPES buffer (pH 7.5), 1 mM calcium chloride, 150 mM sodium chloride, 0.1 mg/ml bovine serum albumin, and 1.7 mM dithiothreitol. To the reaction mixture was added the compound of the present invention and the substrate solution. The reaction was allowed to start by adding an enzyme and continued for 15 min at 37° C. The fatty acids released by the reaction were extracted by the method described in V. P. Dole, and H. Meinertz, J. Biol. Chem., 1960, 235, 2595-2599 and its radiation activity was measured on a liquid scintillation counter. Control was obtained by conducting the experiment in the same manner except that a compound of the present invention was not added.
Molecule `O=C1NC(=O)/C(=C/c2ccc(C(=O)NC[C@@H]3C[C@@H](OCc4ccccc4-c4ccccc4)CN3C(=O)CCC(=O)c3ccccc3)cc2)S1` [Compound A-7] showed an IC50 of 5000 nM.
The result for `O=C1NC(=O)/C(=C/c2ccc(C(=O)NC[C@@H]3C[C@@H](OCc4ccccc4-c4ccccc4)CN3C(=O)/C=C\C(=O)c3ccccc3)cc2)S1` [Compound A-8] reads 24000 nM.
Under `C/C(=C/C(=O)c1ccccc1)C(=O)N1C[C@H](OCc2ccccc2-c2ccccc2)C[C@H]1CNC(=O)c1ccc(/C=C2\SC(=O)NC2=O)cc1` [Compound A-9] stands 5500 nM.
The result for `CC(=O)Nc1ccccc1C(=O)c1ccccc1C(=O)N1C[C@H](OCc2ccccc2-c2ccccc2)C[C@H]1CNC(=O)c1ccc(/C=C2\SC(=O)NC2=O)cc1` [Compound A-24] reads 5800 nM.
`Cc1c(CO[C@@H]2C[C@@H](CNC(=O)c3ccc(/C=C4\SC(=O)NC4=O)cc3)N(C(=O)c3ccccc3C(=O)c3ccc(F)cc3)C2)cccc1-c1ccccc1` [Compound A-31]: half-maximal inhibition (IC50) was put at 200 nM.
`O=C1NC(=O)/C(=C/c2ccc(C(=O)NC[C@@H]3C[C@@H](OCc4cccc(-c5ccc6ccccc6c5)c4)CN3C(=O)c3ccccc3C(=O)c3ccc(F)cc3)cc2)S1` [Compound A-42] registered a concentration for half-maximal inhibition (IC50) of 140 nM.
As to `Nc1cccc(-c2ccccc2CO[C@@H]2C[C@@H](CNC(=O)c3ccc(/C=C4\SC(=O)NC4=O)cc3)N(C(=O)c3ccccc3C(=O)c3ccc(F)cc3)C2)c1` [Compound A-46], half-maximal inhibition (IC50) was put at 150 nM.
Under `O=C(COc1ccc(/C=C2\SC(=O)NC2=O)cc1)NC[C@@H]1C[C@@H](OCc2ccccc2-c2ccccc2)CN1C(=O)c1ccccc1C(=O)c1ccc(F)cc1` [Compound A-50] stands 670 nM; under `O=C1NC(=O)C(CCCc2ccc(C(=O)NC[C@@H]3C[C@@H](OCc4ccccc4-c4ccccc4)CN3C(=O)c3ccccc3C(=O)c3ccc(F)cc3)cc2)S1` (some centres unmarked) [Compound A-51], 180 nM; under `O=C1NC(=O)/C(=C/c2ccc(C(=O)NC[C@@H]3C[C@@H](OCc4ccccc4-c4ccccc4)CN3C(=O)c3ccccc3C(=O)c3ccc(F)cc3)cc2)O1` [Compound A-54], 140 nM.
The molecule `O=C1NC(=O)/C(=C/c2cccc(C(=O)NC[C@@H]3C[C@@H](OCc4ccccc4-c4ccccc4)CN3C(=O)c3ccccc3C(=O)c3ccc(F)cc3)c2)S1` [Compound A-56] returned an IC50 of 2500 nM.
On to `O=C1NC(=O)/C(=C/c2ccc(C(=O)NC[C@@H]3C[C@@H](OCc4ccccc4-c4ccccc4)CN3C(=O)c3ccccc3C(=O)c3ccc(F)cc3)o2)S1` [Compound A-64], for which half-maximal inhibition (IC50) was put at 2200 nM.
Under `O=C(/C=C/C#C/C=C1\SC(=O)NC1=O)NC[C@@H]1C[C@@H](OCc2ccccc2-c2ccccc2)CN1C(=O)c1ccccc1C(=O)c1ccc(F)cc1` [Compound A-66] stands 210 nM.
For the molecule `O=C1NC(=O)/C(=C/c2ccc(C(=O)NC[C@@H]3C[C@@H](Oc4ccc5c6c4CCCN6CCC5)CN3C(=O)c3ccccc3C(=O)c3ccc(F)cc3)cc2)S1` [Compound A-92], half-maximal inhibition (IC50) required 57 nM.
Consider `COc1cccc(-c2cccc(O[C@@H]3C[C@@H](CNC(=O)c4ccc(/C=C5\SC(=O)NC5=O)cc4)N(C(=O)c4ccccc4C(=O)c4ccc(F)cc4)C3)c2)c1` [Compound A-99], for which inhibition was half-maximal at 37 nM (IC50).
The result for `O=C1NC(=O)/C(=C/c2ccc(C(=O)NC[C@@H]3C[C@@H](Oc4ccccc4-c4cccnc4)CN3C(=O)c3ccccc3C(=O)c3ccc(F)cc3)cc2)S1` [Compound A-105] reads 150 nM; that for `O=C1NC(=O)/C(=C/c2ccc(C(=O)NC[C@@H]3C[C@@H](Oc4cccc(-c5cccc(O)c5)c4)CN3C(=O)c3ccccc3C(=O)c3ccc(F)cc3)cc2)S1` [Compound A-106], 200 nM; that for `CCOc1cccc(-c2ccccc2O[C@@H]2C[C@@H](CNC(=O)c3ccc(/C=C4\SC(=O)NC4=O)cc3)N(C(=O)c3ccccc3C(=O)c3ccc(F)cc3)C2)c1` [Compound A-110], 100 nM.
For `O=C1NC(=O)/C(=C/c2ccc(C(=O)NC[C@@H]3C[C@@H](Oc4ccccc4-c4ccc(-c5ccccc5)cc4)CN3C(=O)c3ccccc3C(=O)c3ccc(F)cc3)cc2)S1` [Compound A-113], half-maximal inhibition (IC50) required 120 nM.
Under `CC(C)c1cccc(-c2cccc3ccccc23)c1O[C@@H]1C[C@@H](CNC(=O)c2ccc(/C=C3\SC(=O)NC3=O)cc2)N(C(=O)c2ccccc2C(=O)c2ccc(F)cc2)C1` [Compound A-114] stands 20 nM; under `CC(C)Oc1ccccc1-c1ccccc1O[C@@H]1C[C@@H](CNC(=O)c2ccc(/C=C3\SC(=O)NC3=O)cc2)N(C(=O)c2ccccc2C(=O)c2ccc(F)cc2)C1` [Compound A-121], 65 nM.
The result for `CC(C)Cc1cccc(-c2ccccc2)c1O[C@@H]1C[C@@H](CNC(=O)c2ccc(/C=C3\SC(=O)NC3=O)cc2)N(C(=O)c2ccccc2C(=O)c2ccc(F)cc2)C1` [Compound A-124] reads 24 nM.
Under `CC(C)Cc1cccc(-c2cccc3ccccc23)c1O[C@@H]1C[C@@H](CNC(=O)c2ccc(/C=C3\SC(=O)NC3=O)cc2)N(C(=O)c2ccccc2C(=O)c2ccc(F)cc2)C1` [Compound A-125] stands 6.6 nM; under `CC(C)Cc1cccc(-c2ccccc2C(C)C)c1O[C@@H]1C[C@@H](CNC(=O)c2ccc(/C=C3\SC(=O)NC3=O)cc2)N(C(=O)c2ccccc2C(=O)c2ccc(F)cc2)C1` [Compound A-126], 5.5 nM; under `O=C1NC(=O)C(=CC2CCN(C(=O)[C@@H]3C[C@@H](OCc4ccccc4-c4ccccc4)CN3C(=O)c3ccccc3C(=O)c3ccc(F)cc3)CC2)S1` [Compound B-9], 14000 nM.
The molecule `O=C1NC(=O)/C(=C/c2ccc(/C=C\[C@@H]3C[C@@H](OCc4ccccc4-c4ccccc4)CN3C(=O)c3ccccc3C(=O)c3ccc(F)cc3)s2)S1` [Compound E-6] displayed an IC50 of 1500 nM.
As to `O=C1NC(=S)S/C1=C\c1ccc(/C=C/[C@@H]2C[C@@H](OCc3ccccc3-c3ccccc3)CN2C(=O)c2ccccc2C(=O)c2ccc(F)cc2)s1` [Compound E-7], the IC50 came to 1600 nM.
Under `O=C1NC(=O)/C(=C/c2ccc(/C=C/[C@@H]3C[C@@H](OCc4ccccc4-c4ccccc4)CN3C(=O)c3ccccc3C(=O)c3ccc(F)cc3)s2)S1` [Compound E-8] stands 1400 nM.
Molecule `O=C1NC(=S)S/C1=C\c1ccc(CCC[C@@H]2C[C@@H](OCc3ccccc3-c3ccccc3)CN2C(=O)c2ccccc2C(=O)c2ccc(F)cc2)cc1` [Compound E-10] had an IC50 of 790 nM.
In turn, `O=C1NC(=S)S/C1=C\c1ccc(/C=C\C[C@@H]2C[C@@H](OCc3ccccc3-c3ccccc3)CN2C(=O)c2ccccc2C(=O)c2ccc(F)cc2)cc1` [Compound E-11] came in with a half-maximal inhibitory concentration (IC50) of 320 nM.
Under `O=C1NC(=S)S/C1=C\c1ccc(/C=C/C[C@@H]2C[C@@H](OCc3ccccc3-c3ccccc3)CN2C(=O)c2ccccc2C(=O)c2ccc(F)cc2)cc1` [Compound E-13] stands 77 nM; under `O=C1NC(=O)/C(=C/c2ccc(C(=O)NCCC[C@@H]3C[C@@H](OCc4ccccc4-c4ccccc4)CN3C(=O)c3ccccc3C(=O)c3ccc(F)cc3)cc2)S1` [Compound F-1], 15000 nM; under `O=C1NC(=O)/C(=C/c2ccc(C(=O)NCC[C@@H]3C[C@@H](OCc4ccccc4-c4ccccc4)CN3C(=O)c3ccccc3C(=O)c3ccc(F)cc3)cc2)S1` [Compound F-2], 4700 nM.
The molecule `CN(Cc1ccc(/C=C2\SC(=S)NC2=O)cc1)C[C@@H]1C[C@@H](OCc2ccccc2-c2ccccc2)CN1C(=O)c1ccccc1C(=O)c1ccc(F)cc1` [Compound G-2] came in with an IC50 of 5400 nM.
Molecule `CN(Cc1ccc(/C=C2\SC(=O)NC2=O)cc1)C[C@@H]1C[C@@H](OCc2ccccc2-c2ccccc2)CN1C(=O)c1ccccc1C(=O)c1ccc(F)cc1` [Compound G-3] returned an IC50 of 3300 nM.
Take `CC(=O)N(Cc1ccc(/C=C2\SC(=S)NC2=O)cc1)C[C@@H]1C[C@@H](OCc2ccccc2-c2ccccc2)CN1C(=O)c1ccccc1C(=O)c1ccc(F)cc1` [Compound G-5]: inhibition was half-maximal at 1600 nM (IC50).
In turn, `CC(=O)N(Cc1ccc(/C=C2\SC(=O)NC2=O)cc1)C[C@@H]1C[C@@H](OCc2ccccc2-c2ccccc2)CN1C(=O)c1ccccc1C(=O)c1ccc(F)cc1` [Compound G-7] returned an IC50 of 2800 nM.
For `O=C1NC(=S)S/C1=C\c1ccc(CN(C[C@@H]2C[C@@H](OCc3ccccc3-c3ccccc3)CN2C(=O)c2ccccc2C(=O)c2ccc(F)cc2)C(=O)c2ccccc2)cc1` [Compound G-8], the half-inhibitory concentration (IC50) is 1100 nM.
